Structures can show the parent of a compound that is named as a salt.
Key:
Cor.4U Cardiomyocytes = assay: Ca2+-fluorescence assay in human pluripotent stem cell-derived cardiomyocytes (CTCM human), Cor.4U Cardiomyocytes; format: cell-based; set-up: key: Green: No concern; Yellow: Low concern; Red: High concern; Black: Very high concern due to arrhythmic events; settings: 30 min
Protocol: (§1) 7) Cardio-Electrophysiological Effects of the Testing Compounds in Synchronously Beating Human Pluripotent Stem Cell-Derived Cardiomyocytes (hSC-CMs) Using a Ca^2+-Fluorescence Assay (CTCM Human)
(§2) Compounds were tested in the 96-well plates
Compounds were tested at 0.1 μM, 0.2 μM, 0.5 μM, 1 μM, 2.5 μM and 5 μM (n=4 per dose) on Cor.4U 9-Cardiomyocytes or on iCell® Cardiomyocytes2 […]
(§3) Dimethylsulfoxide (DMSO). The solutions of the compound in DMSO or its solvent (final concentration of 0.1% DMSO; n=8)
(§4) Preparation of Test Article and Controls
(§5) Tested compounds were dissolved in DMSO at 1000-fold the intended concentrations. A compound “mother-plate” was made, containing the test compounds and positive and negative controls at 1000-fold the final concentrations. At the experiment day, these stock solutions were diluted with Tyrode (Sigma), supplemented with 10 mM HEPES (Gibco), to 2-fold the intended concentration (in round bottom compound plates). Final DMSO concentration in test solutions and vehicle control was 0.1%.
hSC-CMs (Cor.4U® Cardiomyocytes) were obtained from CDI (Ncardia, Germany). Cells are pre-plated and seeded in fibronectin-coated 96-well plates at a density suited to form a monolayer and maintained in culture in a stage incubator (37° C., 5% CO2), according to the instructions of the cell provider.
(§6) Before Start of Experiment
(§7) At least one hour before the start of the experiments the normal cell medium was replaced with Tyrode solution with Calcium dye (see below).
(§8) Cal 520 dye (AAT Bioquest) was dissolved in 11 ml of Tyrode supplemented with 10 mM HEPES and warmed up to 37° C. before adding to the cells.
(§9) 35 μl cell culture medium was removed from each well and replaced with 35 μl of pre-warmed Cal 520 dye solution and cell plate was incubated for 45 min at 37° C./5% CO2. Cells were incubated for 5 min at 37° C.
(§10) Spontaneous electrical activity is recorded, using Cal520™ (AAT Bioquest) calcium fluorescence-dye signaling. This dye integrates the total intracellular calcium activity over the whole well. A bottle of Cal520 dye (50 μg, MW: 1103/mol) is dissolved with 50 μl DMSO as a stock solution of 0.9 mM. 50 μL of the stock solution of the dye was added to 10 ml Tryodes solution to have dye concentration of 4.5 μM. Subsequently, 35 μl of this dye solution was added into each well, to have a final dye concentration of 1.58 μM. The current dye protocol on this CTCM human assay was established recently (Ivan Kopljar et al, Journal of Pharmacological and toxicological methods 2018. 91: 80-86; Lu et al., Tox Sci 2019. 170 (2): 345-356).
(§11) Fluorescent signals (Ca^2+ transient morphology) were measured using the Functional Drug Screen System (FDSS/μCell; Hamamatsu, Japan) and the recordings were subsequently analyzed off-line, using appropriate software e.g. Notocord.
(§12) The cell plate was loaded into the FDSS/μCell for a test run: Ca^2+ transients were measured for 4 minutes to check for synchronous beating of the cardiomyocytes in each well. All 96 wells were measured simultaneously (sampling interval: 0.06 s, short exposure time: 10 ms; excitation wavelength 480 nm; emission wavelength 540 nm; FDSS/μCell warmed to 37° C.).
(§13) During the compound addition step, 100 μl of the respective double-concentrated test solutions was pipetted into each well simultaneously.
(§14) Data were analyzed off-line using appropriate software e.g. Notocord-Hem (version 4.3).
The following parameters of the Ca^2′ transient morphology were measured: • beat rate (BR) • amplitude of the Ca^2+ transient (Amp), • CTD90: Ca^2+ transient duration at 90% (time to 90% of the initial base value).
The presence of various ‘arrhythmia-like’ activities were also noted during the experimental periods. […]

iCell Cardiomyocytes2 = assay: Ca2+-fluorescence assay in human pluripotent stem cell-derived cardiomyocytes (CTCM human), iCell Cardiomyocytes2; format: cell-based; set-up: key: Green: No concern; Yellow: Low concern; Red: High concern; Black: Very high concern due to arrhythmic events; settings: 30 min
Protocol: as §1, §2
Compounds were tested at 0.1 μM, 0.2 μM, 0.5 μM, 1 μM, 2.5 μM and 5 μM (n=4 per dose) on Cor.4U 9-Cardiomyocytes or on iCell® Cardiomyocytes2
Alternatively, compounds were tested at 0.1 μM, 0.3 μM; 1 μM, 3 μM, 10 μM and 30 μM (n=4 per dose) mostly on iCell® Cardiomyocytes2
as §3, §4, §5
Second line hSC derived cardiomyocyte called iCell®, Cardiomyocytes2 were purchased from FUJIFILM Cellular Dynamics (USA). The experiments with test drugs are carried out 5 to 7 days after plating the cells onto the plate to have a living, beating monolayer of hiPSC-derived cardiomyocytes. The beating monolayer in 96-well-plates are normally taken from 2 Vials of frozen iCell) Cardiomyocytes2 (≈5 million cells/vial), which will be plated onto […] 96-well plates (≈50K/well).
as §6, §7, §8, §9, §10, §11, §12, §13, §14
The following parameters of the Ca^2′ transient morphology were measured: • beat rate (BR) • amplitude of the Ca^2+ transient (Amp), • CTD90: Ca^2+ transient duration at 90% (time to 90% of the initial base value). […]

CC(C)[C@@H](CCC(C)(C)N)N1CC2(CCN(c3ncnnc3Oc3ccc(F)cc3-c3cncnc3C3CC3)C2)C1 (single isomer, unassigned) [Compound 37, (*R)-5-(6-(6-(2-(4-cyclopropylpyrimidin-5-yl)-4-fluorophenoxy)-1,2,4-triazin-5-yl)-2,6-diazaspiro[3.4]octan-2-yl)-2,6-dimethylheptan-2-amine]
Green: Color @ 0.1 μM (hazard score) (Cor.4U Cardiomyocytes; 0.1 μM) | Color @ 0.2 μM (hazard score) (Cor.4U Cardiomyocytes; 0.2 μM) | Color @ 0.5 μM (hazard score) (Cor.4U Cardiomyocytes; 0.5 μM) | Color @ 1 μM (hazard score) (Cor.4U Cardiomyocytes; 1 μM) | Color @ 2.5 μM (hazard score) (Cor.4U Cardiomyocytes; 2.5 μM) | Color @ 5 μM (hazard score) (Cor.4U Cardiomyocytes; 5 μM)

CCN(C(=O)c1cc(F)ccc1Oc1nncnc1N1CCC2(C1)CN([C@H](CCCN(C)CCC(=O)N(C)C)C(C)C)C2)C(C)C [Compound 246, (R)-2-((5-(2-(6-((3-(dimethylamino)-3-oxopropyl)(methyl)amino)-2-methylhexan-3-yl)-2,6-diazaspiro[3.4]octan-6-yl)-1,2,4-triazin-6-yl)oxy)-N-ethyl-5-fluoro-N-isopropylbenzamide formate]
Green: Color @ 0.1 μM (hazard score) (iCell Cardiomyocytes2; iCell Cardiomyocytes2, 0.1 μM) | Color @ 0.2 μM (hazard score) (iCell Cardiomyocytes2; iCell Cardiomyocytes2, 0.2 μM) | Color @ 0.5 μM (hazard score) (iCell Cardiomyocytes2; iCell Cardiomyocytes2, 0.5 μM) | Color @ 1 μM (hazard score) (iCell Cardiomyocytes2; iCell Cardiomyocytes2, 1 μM) | Color @ 2.5 μM (hazard score) (iCell Cardiomyocytes2; iCell Cardiomyocytes2, 2.5 μM) | Color @ 5 μM (hazard score) (iCell Cardiomyocytes2; iCell Cardiomyocytes2, 5 μM)

— patent US12473295B2, “Substituted straight chain spiro derivatives” (Janssen Pharmaceutica NV, priority 2019, dated 2025)
